Patent publication US9957428B2 (priority 2013, dated 2018)
Where two headings read alike, the source gives them in different places.

Key:
[1] = format: physicochemical
[2] = format: physicochemical; remark: listed apart in the source

Row | SMILES | Cp ([1]; Temperature 15 ° C.) | Cp ([1]; Temperature 20 ° C.) | Cp ([1]; Temperature 25 ° C.) | Cp ([1]; Temperature 30 ° C.) | Cp ([1]; Temperature 35 ° C.) | Cp ([1]; Temperature 40 ° C.) | Kinematic Viscosity ([2]; Temp 0.0 °C) [cS] | Kinematic Viscosity ([2]; Temp 25.0 °C) [cS] | Kinematic Viscosity ([2]; Temp 30.0 °C) [cS] | Kinematic Viscosity ([2]; Temp 40.0 °C) [cS] | Kinematic Viscosity ([2]; Temp 50.0 °C) [cS] | Kinematic Viscosity ([2]; Temp 60.0 °C) [cS] | Vapor Pressure at 68° F.(20° C.) [mm Hg]
1 | F/C(=C(/F)C(F)(F)F)N1C(F)(F)C(F)(F)OC(F)(F)C1(F)F [Preparatory Example 2, 2,2,3,3,5,5,6,6-octafluoro-4-(1,2,3,3,3-pentafluoroprop-1-enyl)morpholine] | 1.09 J/(g · ° C.) | 1.10 J/(g · ° C.) | 1.11 J/(g · ° C.) | 1.12 J/(g · ° C.) | 1.13 J/(g · ° C.) | 1.14 J/(g · ° C.) |  |  |  |  |  |  | 
2 | FC(=C(F)C(F)(F)F)N(C(F)(F)F)C(F)(F)F [Preparatory Example 1, 1,2,3,3,3-pentafluoro-N,N-bis(trifluoromethyl)prop-1-en-1-amine] | 1.25 J/(g · ° C.) | 1.27 J/(g · ° C.) | 1.28 J/(g · ° C.) | 1.30 J/(g · ° C.) | 1.32 J/(g · ° C.) | 1.34 J/(g · ° C.) | 0.91 | 0.58 | 0.54 | 0.48 | 0.42 | 0.38 | 50.9
3 | CCOC(F)(C(F)(F)C(F)(F)C(F)(F)F)C(F)(C(F)(F)F)C(F)(F)F (stereo not shown) [Novec 7500] | 1.08 J/(g · ° C.) | 1.09 J/(g · ° C.) | 1.10 J/(g · ° C.) | 1.11 J/(g · ° C.) | 1.12 J/(g · ° C.) | 1.13 J/(g · ° C.) |  |  |  |  |  |  | 
4 | FC(=C(F)C(F)(F)F)N(C(F)(F)F)C(F)(F)C(F)(F)F [Preparatory Example 5, 1,2,3,3,3-pentafluoro-N-(1,1,2,2,2-pentafluoroethyl)-N-(trifluoromethyl)prop-1-en-1-amine] | 1.18 J/(g · ° C.) | 1.20 J/(g · ° C.) | 1.21 J/(g · ° C.) | 1.22 J/(g · ° C.) | 1.23 J/(g · ° C.) | 1.24 J/(g · ° C.) |  |  |  |  |  |  | 
